Measured values reported in PMC3203118, “Elucidation of the ATP7B N-Domain Mg^2+-ATP Coordination Site and Its Allosteric Regulation” (PLoS ONE, 2011).
Changes are numbered by the printed parent chain.

Experiments:
Assay in all cases: surface plasmon resonance (BIAcore), protein immobilised on CM4 chip
[1] = biological target: T1, ATP7B N-domain (Nucleotide binding domain) (Homo sapiens, UniProt P35670); settings: read-out: Kd (μM) / ATP
T1 construct: covalently immobilised on CM4 sensor chip
T1 sequence (P35670 1036-1196): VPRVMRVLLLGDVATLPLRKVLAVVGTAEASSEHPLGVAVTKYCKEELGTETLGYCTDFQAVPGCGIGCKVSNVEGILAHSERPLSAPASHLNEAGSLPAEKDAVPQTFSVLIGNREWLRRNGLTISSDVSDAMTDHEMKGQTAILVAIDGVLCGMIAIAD
From the text: (§1) surface plasmon resonance (BIAcore), protein immobilised on CM4 chip on ATP7B N-domain (Nucleotide binding domain)

[2] = biological target: T2, ATP7B N-domain (Nucleotide binding domain) (Homo sapiens, UniProt P35670, D1167A); settings: read-out: Kd (μM) / ATP
T2 construct: covalently immobilised on CM4 sensor chip
T2 sequence (P35670 1036-1196 D1167A): T1 sequence (P35670 1036-1196) with D132A
From the text: as §1

[3] = biological target: T3, ATP7B N-domain (Nucleotide binding domain) (Homo sapiens, UniProt P35670, D1167A/D1171A/E1152A)
T3 construct: covalently immobilised on CM4 sensor chip
T3 sequence (P35670 1036-1196 E1152A/D1167A/D1171A): T1 sequence (P35670 1036-1196) with E117A, D132A, D136A
From the text: as §1

[4] = biological target: T4, ATP7B N-domain (Nucleotide binding domain) (Homo sapiens, UniProt P35670, D1171A); settings: read-out: Kd (μM) / ATP
T4 construct: covalently immobilised on CM4 sensor chip
T4 sequence (P35670 1036-1196 D1171A): T1 sequence (P35670 1036-1196) with D136A
From the text: as §1

[5] = biological target: T5, ATP7B N-domain (Nucleotide binding domain) (Homo sapiens, UniProt P35670, DEL1121-1137)
T5 construct: covalently immobilised on CM4 sensor chip
T5 sequence (P35670 with tags, fused parts or gaps DEL1121-1137): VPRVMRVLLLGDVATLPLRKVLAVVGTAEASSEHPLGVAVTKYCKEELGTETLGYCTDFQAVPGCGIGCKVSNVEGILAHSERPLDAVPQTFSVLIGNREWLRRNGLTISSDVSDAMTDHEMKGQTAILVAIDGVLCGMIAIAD
From the text: as §1

[6] = biological target: T6, ATP7B N-domain (Nucleotide binding domain) (Homo sapiens, UniProt P35670, E1152A); settings: read-out: Kd (μM) / ATP
T6 construct: covalently immobilised on CM4 sensor chip
T6 sequence (P35670 1036-1196 E1152A): T1 sequence (P35670 1036-1196) with E117A
From the text: as §1

[7] = biological target: T7, ATP7B N-domain (Nucleotide binding domain) (Homo sapiens, UniProt P35670, H1069Q); settings: read-out: Kd (μM) / ATP
T7 construct: covalently immobilised on CM4 sensor chip
T7 sequence (P35670 1036-1196 H1069Q): T1 sequence (P35670 1036-1196) with H34Q
From the text: as §1

[8] = biological target: T8, ATP7B N-domain (Nucleotide binding domain) (Homo sapiens, UniProt P35670, N1150A); settings: read-out: Kd (μM) / ATP
T8 construct: covalently immobilised on CM4 sensor chip
T8 sequence (P35670 1036-1196 N1150A): T1 sequence (P35670 1036-1196) with N115A
From the text: as §1

Molecule `Nc1ncnc2c1ncn2[C@@H]1O[C@H](COP(=O)(O)OP(=O)(O)OP(=O)(O)O)[C@@H](O)[C@H]1O` [ATP] has a Kd [1] of 74.2 ± 2.52 µM, a Kd [2] of 96.9 ± 3.91 µM and a Kd [3] of over 1000 µM. The Kd [4] was 81.1 ± 3.16 µM, the Kd [5] was over 1000 µM and the Kd [6] was 174 ± 3.82 µM. It also gave a Kd [7] of 76.5 ± 1.72 µM and a Kd [8] of 82.7 ± 4.16 µM.
